Values quoted from earlier work in patent US20120191185A1, “OPHTHALMIC INTRAOCULAR LENS FOR PROMOTING HEALING” (priority 2011, published 2012).

What was measured:
[1] = subconjunctival administration
[2] = tested on: posterior capsule opacification; settings: rabbits
[3] = primates
corneal anterior stroma = settings: mammals, clinical setting

In the case of `O=c1[nH]cc(F)c(=O)[nH]1` [5-fluorouracil], the ocular complications [1] is given as “corneal epithelial defects and other ocular complications” and the “effect on posterior capsule opacification” value [2] is given as “reduces posterior capsule opacification”.
In the case of `COc1cc2c(c(OC)c1OC)-c1ccc(OC)c(=O)cc1[C@@H](NC(C)=O)CC2` [colchicine], the “inhibition of lens epithelial cell proliferation and migration” value (lens epithelial cell) is listed as “potent inhibitor” and the “toxic effect on the optic nerve” value [3] is listed as “temporary toxic effect on the optic nerve”.
For platelet derived growth factor, the “corneal anterior stroma healing” value (corneal anterior stroma) is listed as “accelerate corneal anterior stroma healing”.
